From patent US8410144B2, “Substituted indolo-pyridinone compounds” (ArQule, Inc., priority 2009, dated 2013)

Tests used:
[1] = test system: KATO III; assay: MTS assay, KATO III cells; assay type: cell-based; conditions: Homo sapiens, 72 hours, read-out: KATO III, MTS cell kill % inhibition
How it was run: (§1)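 First, seed 3000 cells per well in low-serum (1% FBS) DMEM and culture 18 h. Next, add compounds prepared at 300× in DMSO and diluted 1:40 in DMEM; incubate 72 h. Finally, add MTS/PMS for 4 h and measure absorbance at 492 nm.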

[2] = test system: MDA-MB-231; assay: MTS assay, MDA-MB-231 cells; assay type: cell-based; conditions: Homo sapiens, 72 hours, read-out: MDA-MB-231, MTS cell kill % inhibition
How it was run: as §1

[3] = test system: DLD-1; assay: MTS assay, DLD-1 cells; assay type: cell-based; conditions: Homo sapiens, 72 hours, read-out: DLD-1, MTS cell kill % inhibition
How it was run: as §1

[4] = biological target: IGF-1R (Homo sapiens, UniProt P08069); assay: IGFR1 activity assay (ELISA); assay type: biochemical; conditions: read-out: IGF-1R, PCT INH (30 μM), ELISA
How it was run: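 IGF1R (0.33 ng/μL final) phosphorylating Pyk-2 (0.05 ng/μL final) in buffer with 12.5 μM ATP, 10 mM MgCl2, 1 h room temperature. Product captured on streptavidin plates, detected with anti-phosphotyrosine and alkaline phosphatase secondary antibody, Attophos fluorescent readout.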

[5] = test system: NCI-H1299; assay: MTS assay, NCI-H1299 cells; assay type: cell-based; conditions: Homo sapiens, 72 hours, read-out: NCI-H1299, MTS cell kill % inhibition
How it was run: as §1

IGF-1R, sequence (P08069 31-1367): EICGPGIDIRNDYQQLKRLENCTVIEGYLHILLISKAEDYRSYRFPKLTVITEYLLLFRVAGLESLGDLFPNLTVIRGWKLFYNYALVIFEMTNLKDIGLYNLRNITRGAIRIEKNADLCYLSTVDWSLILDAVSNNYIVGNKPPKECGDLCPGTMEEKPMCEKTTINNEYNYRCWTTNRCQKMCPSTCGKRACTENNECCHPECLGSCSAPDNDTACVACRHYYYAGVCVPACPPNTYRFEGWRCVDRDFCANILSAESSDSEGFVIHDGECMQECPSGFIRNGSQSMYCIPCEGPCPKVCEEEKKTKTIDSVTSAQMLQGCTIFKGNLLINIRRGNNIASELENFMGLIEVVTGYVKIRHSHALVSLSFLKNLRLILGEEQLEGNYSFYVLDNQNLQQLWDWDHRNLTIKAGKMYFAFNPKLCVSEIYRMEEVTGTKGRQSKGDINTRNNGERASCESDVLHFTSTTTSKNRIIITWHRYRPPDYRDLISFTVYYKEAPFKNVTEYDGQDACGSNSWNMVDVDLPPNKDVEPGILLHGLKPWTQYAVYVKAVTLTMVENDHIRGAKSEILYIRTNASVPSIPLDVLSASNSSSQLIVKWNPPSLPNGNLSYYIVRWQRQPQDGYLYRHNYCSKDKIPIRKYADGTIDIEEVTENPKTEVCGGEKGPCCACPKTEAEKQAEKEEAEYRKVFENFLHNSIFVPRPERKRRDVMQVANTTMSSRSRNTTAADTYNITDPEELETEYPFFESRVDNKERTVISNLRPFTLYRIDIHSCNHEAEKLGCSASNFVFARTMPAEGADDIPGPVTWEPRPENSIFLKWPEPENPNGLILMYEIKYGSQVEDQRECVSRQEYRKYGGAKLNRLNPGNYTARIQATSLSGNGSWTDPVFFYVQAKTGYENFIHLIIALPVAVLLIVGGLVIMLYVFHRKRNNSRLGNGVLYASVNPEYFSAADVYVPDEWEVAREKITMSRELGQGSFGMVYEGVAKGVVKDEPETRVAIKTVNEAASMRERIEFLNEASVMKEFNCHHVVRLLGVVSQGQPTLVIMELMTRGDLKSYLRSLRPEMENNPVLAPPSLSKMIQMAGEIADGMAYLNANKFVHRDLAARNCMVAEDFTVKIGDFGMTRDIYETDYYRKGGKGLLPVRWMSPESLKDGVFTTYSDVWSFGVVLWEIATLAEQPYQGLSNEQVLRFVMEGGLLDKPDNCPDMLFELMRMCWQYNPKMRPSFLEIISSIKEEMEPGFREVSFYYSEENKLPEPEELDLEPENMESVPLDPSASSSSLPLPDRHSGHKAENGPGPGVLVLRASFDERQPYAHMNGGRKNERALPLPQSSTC

Row | Structure (SMILES) | melting point | inhibition at 30 µM [4] | inhibition at 10 µM [1] | inhibition at 10 µM [2] | inhibition at 10 µM [3] | inhibition at 10 µM [5]
1 | CCN(CC)CCCNC(=O)c1ccc2[nH]c(-c3ccc[nH]c3=O)c(-c3ccccc3)c2c1 [Compound 2, N-[3-(diethylamino)propyl]-2-(2-oxo-1,2-dihydropyridin-3-yl)-3-phenyl-1H-indole-5-carboxamide] | 190 to 198 °C | 80 to 100% | 80 to 100% | 50 to 79% | 50 to 79% | 50 to 79%
2 | CN1CCCC1CCNC(=O)c1ccc2[nH]c(-c3ccc[nH]c3=O)c(-c3ccccc3)c2c1 (stereo not drawn) [Compound 5, N-[2-(1-methylpyrrolidin-2-yl)ethyl]-2-(2-oxo-1,2-dihydropyridin-3-yl)-3-phenyl-1H-indole-5-carboxamide] | 185 to 188 °C | < 50% | 80 to 100% | 50 to 79% | 50 to 79% | 80 to 100%
3 | O=C(NCCCN1CCOCC1)c1ccc2[nH]c(-c3ccc[nH]c3=O)c(-c3cc4cccc5c4n3CCC5)c2c1 [Compound 8, 3-(5,6-dihydro-4H-pyrrolo[3,2,1-ij]quinolin-2-yl)-N-(3-morpholin-4-ylpropyl)-2-(2-oxo-1,2-dihydropyridin-3-yl)-1H-indole-5-carboxamide] | 181 to 189 °C | 50 to 79% | 80 to 100% | 80 to 100% | 80 to 100% | 80 to 100%
4 | COC(=O)c1ccc2[nH]c(-c3ccc[nH]c3=O)c(-c3ccc(-c4ccccc4)cc3)c2c1 [Compound 9, methyl 3-biphenyl-4-yl-2-(2-oxo-1,2-dihydropyridin-3-yl)-1H-indole-5-carboxylate] | > 300 °C | < 50% | < 50% | < 50% | < 50% | < 50%
5 | O=C(Nc1ccccc1Cl)c1ccc2[nH]c(-c3ccc[nH]c3=O)c(-c3ccccc3)c2c1 [Compound 12, N-(2-chlorophenyl)-2-(2-oxo-1,2-dihydropyridin-3-yl)-3-phenyl-1H-indole-5-carboxamide] | > 300 °C | < 50% | 80 to 100% | 50 to 79% | 80 to 100% | 80 to 100%
6 | Cc1ccccc1N(C)C(=O)c1ccc2[nH]c(-c3ccc[nH]c3=O)c(-c3ccccc3)c2c1 [Compound 16, N-methyl-N-(2-methylphenyl)-2-(2-oxo-1,2-dihydropyridin-3-yl)-3-phenyl-1H-indole-5-carboxamide] | 216 to 220 °C | 80 to 100% | 80 to 100% | < 50% | 50 to 79% | 50 to 79%
7 | O=C(c1ccc2[nH]c(-c3ccc[nH]c3=O)c(-c3ccccc3)c2c1)N1CCCCC1 [Compound 17, 3-[3-phenyl-5-(piperidin-1-ylcarbonyl)-1H-indol-2-yl]pyridin-2(1H)-one] | 182 to 186 °C | 80 to 100% | 80 to 100% | < 50% | 50 to 79% | 80 to 100%
8 | CN(C)CCCN(C)C(=O)c1ccc2[nH]c(-c3ccc[nH]c3=O)c(-c3ccccc3)c2c1 [Compound 27, N-[3-(dimethylamino)propyl]-N-methyl-2-(2-oxo-1,2-dihydropyridin-3-yl)-3-phenyl-1H-indole-5-carboxamide] | 125 to 128 °C | 80 to 100% | 80 to 100% | 50 to 79% | 50 to 79% | 50 to 79%
9 | CN(C)CCCNC(=O)c1ccc2[nH]c(-c3ccc[nH]c3=O)c(-c3ccccc3)c2c1 [Compound 30, N-[3-(dimethylamino)propyl]-2-(2-oxo-1,2-dihydropyridin-3-yl)-3-phenyl-1H-indole-5-carboxamide] | 143 to 145 °C | 80 to 100% | 80 to 100% | 80 to 100% | 80 to 100% | 80 to 100%
10 | CN(Cc1cccnc1)C(=O)c1ccc2[nH]c(-c3ccc[nH]c3=O)c(-c3ccc(-c4ccccc4)cc3)c2c1 [Compound 33, 3-biphenyl-4-yl-N-methyl-2-(2-oxo-1,2-dihydropyridin-3-yl)-N-(pyridin-3-ylmethyl)-1H-indole-5-carboxamide] | 92 to 97 °C | < 50% | 80 to 100% | 80 to 100% | 80 to 100% | 80 to 100%
11 | O=C(c1ccc2[nH]c(-c3ccc[nH]c3=O)c(-c3ccc(-c4ccccc4)cc3)c2c1)N1CCN(c2ccccc2F)CC1 [Compound 36, 3-(3-biphenyl-4-yl-5-{[4-(2-fluorophenyl)piperazin-1-yl]carbonyl) -1H-indol-2-yl)pyridin-2(1H)-one] | 137 to 144 °C | < 50% | < 50% | 50 to 79% | < 50% | < 50%
12 | O=C(c1ccc2[nH]c(-c3ccc[nH]c3=O)c(-c3ccc(-c4ccccc4)cc3)c2c1)N1CCCCC1 [Compound 38, 3-[3-biphenyl-4-yl-5-(piperidin-1-ylcarbonyl)-1H-indol-2-yl]pyridin-2(1H)-one] | 170 to 182 °C | < 50% | 80 to 100% | 80 to 100% | 80 to 100% | 80 to 100%
13 | O=C(NCc1ccccn1)c1ccc2[nH]c(-c3ccc[nH]c3=O)c(-c3ccc(-c4ccccc4)cc3)c2c1 [Compound 42, 3-biphenyl-4-yl-2-(2-oxo-1,2-dihydropyridin-3-yl)-N-(pyridin-2-ylmethyl)-1H-indole-5-carboxamide] | 123 to 127 °C | < 50% | 80 to 100% | 80 to 100% | 80 to 100% | 80 to 100%
14 | O=C(c1ccc2[nH]c(-c3ccc[nH]c3=O)c(-c3ccc(-c4ccccc4)cc3)c2c1)N1CCN(c2cnccn2)CC1 [Compound 45, 3-{3-biphenyl-4-yl-5-[(4-pyrazin-2-ylpiperazin-1-yl)carbonyl]-1H-indol-2-yl}pyridin-2(1H)-one] | 289 to 296 °C | 50 to 79% | 80 to 100% | 80 to 100% | 50 to 79% | 80 to 100%

More lines, main results first:

Row | melting point | inhibition at 30 µM [4] | Structure (SMILES) | inhibition at 10 µM [1] | inhibition at 10 µM [2] | inhibition at 10 µM [3] | inhibition at 10 µM [5]
15 | 176 to 182 °C | 50 to 79% | O=C(Nc1cccc(F)c1)c1ccc2[nH]c(-c3ccc[nH]c3=O)c(-c3ccccc3)c2c1 [Compound 13, N-(3-fluorophenyl)-2-(2-oxo-1,2-dihydropyridin-3-yl)-3-phenyl-1H-indole-5-carboxamide] | 80 to 100% | 50 to 79% | 80 to 100% | 80 to 100%
16 | > 300 °C | 80 to 100% | O=C(Nc1ccccc1F)c1ccc2[nH]c(-c3ccc[nH]c3=O)c(-c3ccccc3)c2c1 [Compound 15, N-(2-fluorophenyl)-2-(2-oxo-1,2-dihydropyridin-3-yl)-3-phenyl-1H-indole-5-carboxamide] | 80 to 100% | 50 to 79% | 80 to 100% | 50 to 79%
17 | 244 to 250 °C | 50 to 79% | O=C(Nc1cccc(Cl)c1)c1ccc2[nH]c(-c3ccc[nH]c3=O)c(-c3ccccc3)c2c1 [Compound 22, N-(3-chlorophenyl)-2-(2-oxo-1,2-dihydropyridin-3-yl)-3-phenyl-1H-indole-5-carboxamide] | 80 to 100% | 50 to 79% | 80 to 100% | 50 to 79%
18 | 279 to 283 °C | 80 to 100% | COc1ccc(NC(=O)c2ccc3[nH]c(-c4ccc[nH]c4=O)c(-c4ccccc4)c3c2)cc1 [Compound 29, N-(4-methoxyphenyl)-2-(2-oxo-1,2-dihydropyridin-3-yl)-3-phenyl-1H-indole-5-carboxamide] | 80 to 100% | < 50% | 50 to 79% | 80 to 100%
19 | 136 to 141 °C | < 50% | CN(CCc1ccccc1)C(=O)c1ccc2[nH]c(-c3ccc[nH]c3=O)c(-c3ccc(-c4ccccc4)cc3)c2c1 [Compound 43, 3-biphenyl-4-yl-N-methyl-2-(2-oxo-1,2-dihydropyridin-3-yl)-N-(2-phenylethyl)-1H-indole-5-carboxamide] | 50 to 79% | < 50% | 50 to 79% | 50 to 79%
20 | 147 to 153 °C | < 50% | O=C(NCCOc1ccccc1)c1ccc2[nH]c(-c3ccc[nH]c3=O)c(-c3ccc(-c4ccccc4)cc3)c2c1 [Compound 51, 3-biphenyl-4-yl-2-(2-oxo-1,2-dihydropyridin-3-yl)-N-(2-phenoxyethyl)-1H-indole-5-carboxamide] | < 50% | 50 to 79% | < 50% | < 50%
